Measurements published in article PMC13366377 (Acta Pharmaceutica Sinica. B, 2025).
Positions of bridges follow the written chain, without caps; N, C: chain ends. Non-standard residues stand in square brackets, D forms with d. Residues, ends and D or L forms follow the SMILES beside them. pGlu = O=C1CC[C@@H](C(=O)O)N1

Key:
hα7 nAChR = hα7 nAChR (Homo sapiens, UniProt P36544); assay: cell-based
in vitro = conditions: human, serum
α7^EM nAChR S56A = α7^EM nAChR S56A (Homo sapiens, UniProt P36544, S56A, form not given); assay type: cell-based; conditions: read-out: IC50 at α7^EM nAChR mutant S56A
α7^EM nAChR E184Q = α7^EM nAChR E184Q (Homo sapiens, UniProt P36544, E184Q, form not given); assay type: cell-based; conditions: read-out: IC50 at α7^EM nAChR mutant E184Q
α7^EM nAChR Q139E = α7^EM nAChR Q139E (Homo sapiens, UniProt P36544, Q139E, form not given); assay type: cell-based; conditions: read-out: IC50 at α7^EM nAChR mutant Q139E
α7^EM nAChR = α7^EM nAChR (Homo sapiens, UniProt P36544); assay: cell-based; assay type: cell-based
α7^EM nAChR R208A = α7^EM nAChR R208A (Homo sapiens, UniProt P36544, R208A, form not given); assay type: cell-based; conditions: read-out: IC50 at α7^EM nAChR mutant R208A
Chain of α7^EM nAChR R208A (P36544 23-502 R208A, form open): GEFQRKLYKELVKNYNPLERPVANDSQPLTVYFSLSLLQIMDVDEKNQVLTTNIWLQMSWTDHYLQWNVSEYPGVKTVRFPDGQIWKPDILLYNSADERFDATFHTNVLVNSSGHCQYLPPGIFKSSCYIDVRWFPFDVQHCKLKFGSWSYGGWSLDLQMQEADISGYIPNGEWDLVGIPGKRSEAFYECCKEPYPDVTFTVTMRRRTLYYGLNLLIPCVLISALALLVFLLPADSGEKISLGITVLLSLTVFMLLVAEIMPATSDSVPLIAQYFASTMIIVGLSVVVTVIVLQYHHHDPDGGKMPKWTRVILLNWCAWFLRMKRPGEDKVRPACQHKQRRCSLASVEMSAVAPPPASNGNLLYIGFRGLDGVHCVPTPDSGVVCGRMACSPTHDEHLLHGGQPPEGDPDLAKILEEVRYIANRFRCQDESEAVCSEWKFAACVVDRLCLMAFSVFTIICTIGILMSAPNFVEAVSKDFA

Chain of α7^EM nAChR (P36544 23-233 limits assumed): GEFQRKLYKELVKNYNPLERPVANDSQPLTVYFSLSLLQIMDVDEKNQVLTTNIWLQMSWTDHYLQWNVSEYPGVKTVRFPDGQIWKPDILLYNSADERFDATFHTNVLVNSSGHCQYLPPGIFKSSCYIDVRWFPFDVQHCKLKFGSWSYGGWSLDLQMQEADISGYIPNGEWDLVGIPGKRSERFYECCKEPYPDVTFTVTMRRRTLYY
Chain of hα7 nAChR (P36544 23-502): as the sequence (P36544 23-502 R208A, form open) above, with A186R counted along it
Chain of α7^EM nAChR S56A (P36544 23-502 S56A, form open): as the sequence (P36544 23-502 R208A, form open) above, with S34A, A186R counted along it
Chain of α7^EM nAChR E184Q (P36544 23-502 E184Q, form open): as the sequence (P36544 23-502 R208A, form open) above, with E162Q, A186R counted along it
Chain of α7^EM nAChR Q139E (P36544 23-502 Q139E, form open): as the sequence (P36544 23-502 R208A, form open) above, with Q117E, A186R counted along it

With `N=C(N)NCCC[C@@H]1NC(=O)[C@@H](NC(=O)CN)CSSC[C@@H](C(N)=O)NC(=O)[C@H](Cc2c[nH]c3ccccc23)NC(=O)[C@H](CCCNC(=N)N)NC(=O)[C@H](CCCNC(=N)N)NC(=O)[C@H](Cc2c[nH]c3ccccc23)NC(=O)[C@H](Cc2c[nH]c3ccccc23)NC1=O` [[ΔQP, S8R]SS1] (H-GCRWWRRWC-NH2; disulfide 2-9) the IC50 (hα7 nAChR) was 0.0492 µM, the “increase in potency compared to SS1” value (hα7 nAChR) was ~29 fold and the remaining at 24 h (in vitro) was 14%.

For `N=C(N)NCCC[C@@H]1NC(=O)[C@H](CO)NC(=O)[C@H](Cc2c[nH]c3ccccc23)NC(=O)[C@H](Cc2c[nH]c3ccccc23)NC(=O)[C@H](CCCNC(=N)N)NC(=O)[C@@H](NC(=O)[C@H](CCCNC(=N)N)NC(=O)[C@@H]2CCCN2C(=O)[C@@H](N)CCC(N)=O)CSSC[C@@H](C(N)=O)NC(=O)[C@H](Cc2c[nH]c3ccccc23)NC1=O` [[G3R]SS1] (H-QPRCRWWSRWC-NH2; disulfide 4-11), the “potency at hα7 nAChR relative to parent peptide (in words)” value (hα7 nAChR) was “no significant differences”.

`N=C(N)NCCC[C@@H]1NC(=O)[C@@H](NC(=O)CNC(=O)[C@@H]2CCCN2C(=O)[C@@H](N)CCC(N)=O)CSSC[C@@H](C(N)=O)NC(=O)[C@H](Cc2c[nH]c3ccccc23)NC(=O)[C@H](CCCNC(=N)N)NC(=O)[C@H](CCCNC(=N)N)NC(=O)[C@H](Cc2c[nH]c3ccccc23)NC(=O)[C@H](Cc2c[nH]c3ccccc23)NC1=O` [[S8R]SS1] (H-QPGCRWWRRWC-NH2; disulfide 4-11) showed an IC50 (α7^EM nAChR S56A) of 0.234 ± 0.0361 µM, an IC50 (α7^EM nAChR E184Q) of 0.555 ± 0.0999 µM and an IC50 (α7^EM nAChR Q139E) of 0.852 ± 0.0663 µM. It also gave an IC50 (α7^EM nAChR) of 0.659 ± 0.0929 µM and an IC50 (α7^EM nAChR R208A) of 1.93 ± 0.196 µM.

In the case of `N=C(N)NCCC[C@@H]1NC(=O)[C@@H](NC(=O)CNC(=O)[C@@H]2CCCN2C(=O)[C@@H](N)CCCNC(=N)N)CSSC[C@@H](C(N)=O)NC(=O)[C@H](Cc2c[nH]c3ccccc23)NC(=O)[C@H](CCCNC(=N)N)NC(=O)[C@H](CO)NC(=O)[C@H](Cc2c[nH]c3ccccc23)NC(=O)[C@H](Cc2c[nH]c3ccccc23)NC1=O` [[Q1R]SS1] (H-RPGCRWWSRWC-NH2; disulfide 4-11), the “potency at hα7 nAChR relative to parent peptide (in words)” value (hα7 nAChR) is reported as “no significant differences”.

With `N=C(N)NCCC[C@@H]1NC(=O)[C@@H](NC(=O)CNC(=O)[C@@H]2CCCN2C(=O)[C@@H](N)CCC(N)=O)CSSC[C@@H](C(N)=O)NC(=O)[C@H](Cc2c[nH]c3ccccc23)NC(=O)[C@H](CCCNC(=N)N)NC(=O)[C@H](CO)NC(=O)[C@H](CCCNC(=N)N)NC(=O)[C@H](Cc2c[nH]c3ccccc23)NC1=O` [[W7R]SS1] (H-QPGCRWRSRWC-NH2; disulfide 4-11) the “potency at hα7 nAChR relative to parent peptide (in words)” value (hα7 nAChR) was “no significant differences”.

With `N=C(N)NCCC[C@@H]1NC(=O)[C@@H](NC(=O)CNC(=O)[C@H](CCCNC(=N)N)NC(=O)[C@@H](N)CCC(N)=O)CSSC[C@@H](C(N)=O)NC(=O)[C@H](Cc2c[nH]c3ccccc23)NC(=O)[C@H](CCCNC(=N)N)NC(=O)[C@H](CO)NC(=O)[C@H](Cc2c[nH]c3ccccc23)NC(=O)[C@H](Cc2c[nH]c3ccccc23)NC1=O` [[P2R]SS1] (H-QRGCRWWSRWC-NH2; disulfide 4-11) the “potency at hα7 nAChR relative to parent peptide (in words)” value (hα7 nAChR) was “no significant differences”.

For `N=C(N)NCCC[C@@H]1NC(=O)[C@@H](NC(=O)CNC(=O)[C@@H]2CCCN2C(=O)[C@@H](N)CCC(N)=O)CSSC[C@@H](C(N)=O)NC(=O)[C@H](Cc2c[nH]c3ccccc23)NC(=O)[C@H](CCCNC(=N)N)NC(=O)[C@H](CO)NC(=O)[C@H](Cc2c[nH]c3ccccc23)NC(=O)[C@H](CCCNC(=N)N)NC1=O` [[W6R]SS1] (H-QPGCRRWSRWC-NH2; disulfide 4-11), the “potency at hα7 nAChR relative to parent peptide (in words)” value (hα7 nAChR) was “completely lost potency”.

For `N=C(N)NCCC[C@@H]1NC(=O)[C@@H](NC(=O)CNC(=O)[C@@H]2CCCN2C(=O)[C@@H](N)CCC(=O)O)CSSC[C@@H](C(N)=O)NC(=O)[C@H](Cc2c[nH]c3ccccc23)NC(=O)[C@H](CCCNC(=N)N)NC(=O)[C@H](CCCNC(=N)N)NC(=O)[C@H](Cc2c[nH]c3ccccc23)NC(=O)[C@H](Cc2c[nH]c3ccccc23)NC1=O` [[Q1E, S8R]SS1] (H-EPGCRWWRRWC-NH2; disulfide 4-11), the IC50 (α7^EM nAChR) was 0.364 ± 0.103 µM and the “increase in potency versus [S8R]SS1 at α7^EM nAChR” value (α7^EM nAChR) was 1.8 fold.

With `N=C(N)NCCC[C@@H]1NC(=O)[C@@H](NC(=O)CNC(=O)[C@@H]2CCCN2C(=O)[C@@H](N)CCCNC(=N)N)CSSC[C@@H](C(N)=O)NC(=O)[C@H](Cc2c[nH]c3ccccc23)NC(=O)[C@H](CCCNC(=N)N)NC(=O)[C@H](CCCNC(=N)N)NC(=O)[C@H](Cc2c[nH]c3ccccc23)NC(=O)[C@H](Cc2c[nH]c3ccccc23)NC1=O` [[Q1R, S8R]SS1] (H-RPGCRWWRRWC-NH2; disulfide 4-11) the IC50 (α7^EM nAChR) was 0.136 ± 0.0278 µM and the “increase in potency versus [S8R]SS1 at α7^EM nAChR” value (α7^EM nAChR) was 4.8 fold.

In the case of `N=C(N)NCCC[C@@H]1NC(=O)[C@@H](NC(=O)CNC(=O)[C@@H]2CCCN2C(=O)[C@@H](N)CCC(N)=O)CSSC[C@@H](C(N)=O)NC(=O)[C@H](Cc2c[nH]c3ccccc23)NC(=O)[C@H](CCCNC(=N)N)NC(=O)[C@H](CCCNC(=N)N)NC(=O)[C@H](Cc2c[nH]c3ccccc23)NC(=O)[C@H](CCCNC(=N)N)NC1=O` [[W6R, S8R]SS1] (H-QPGCRRWRRWC-NH2; disulfide 4-11), the “potency of [S8R]SS1 analogues at hα7 nAChR relative to [S8R]SS1 (in words)” value (hα7 nAChR; n = 8-10) is reported as “maintained potency”.

`N=C(N)NCCC[C@@H]1NC(=O)[C@@H](NC(=O)CNC(=O)[C@@H]2CCCN2C(=O)[C@@H]2CCC(=O)N2)CSSC[C@@H](C(N)=O)NC(=O)[C@H](Cc2c[nH]c3ccccc23)NC(=O)[C@H](CCCNC(=N)N)NC(=O)[C@H](CCCNC(=N)N)NC(=O)[C@H](Cc2c[nH]c3ccccc23)NC(=O)[C@H](Cc2c[nH]c3ccccc23)NC1=O` [[Q1Pyr, S8R]SS1] ([pGlu]PGCRWWRRWC-NH2; disulfide 4-11) gave an IC50 (α7^EM nAChR) of 1.39 ± 0.26 µM.
